The values below come from patent US20200079819A1, “Use of a Vaccine Targeting a Cryptic Tert Epitope, for Treating Lung Cancer in a HLA-A*0201-Positive Never-Smoker or Light-Former Smoker Patient” (Vaxon Biotech, priority 2017, published 2020).

No end group written: not given here.

The subject of the experiment is T cells specific for the TERT572 peptide. Put plainly: Immunomonitoring: IFNg ELISpot assay on PBMC of vaccinated patients. It is filed as in vivo, human.

On to “Vx-001: vaccine composed of two nine-amino-acid peptides, TERT572 (SEQ ID No: 1) and TERT572Y (SEQ ID No: 2), administered separately with adjuvant Montanide ISA51 VG (chain 1 RLFFYRKSV; chain 2 YLFFYRKSV; not fully specified)”, for which the “Patients who mounted a TERT572 specific immune response” value amounted to 29.3% (Vx-001 treated patients measured at least at W6, W18 or thereafter (22 of 75 patients)); 36% (Vx-001 treated patients with non-squamous (NSQ) NSCLC); 13.3% (Vx-001 treated patients with squamous (SQ) NSCLC). In addition, the “Frequency of vaccine-induced immune response” value turned out to be 15% (Vx-001 treated patients with natural immunity) and 36.2% (Vx-001 treated patients without natural immunity).
